Test results taken from ChEMBL document CHEMBL1145045 (J Med Chem, 2003).

target: Major prion protein; assay: Half maximal inhibition of Prion protein PrPsc formation was assayed in ScN2a cells; type: cell-based

Going from `CN(C)CCCN1c2ccccc2Sc2ccccc21` [PROMAZINE] to `CN(C)CCCN1c2ccccc2Sc2ccc(Cl)cc21` [CHLORPROMAZINE], the EC50 falls from 5 µM to 2 µM (2.5-fold). The second is the more potent here.

Compared with `CC(=O)c1ccc2c(c1)N(CCCN(C)C)c1ccccc1S2` [ACEPROMAZINE], `CC(CN1c2ccccc2Sc2ccccc21)N(C)C` (stereo not drawn) [PROMETHAZINE] is 1.6-fold higher in EC50: 5 µM for the first, 8 µM for the second.

Compared with `CCN(CC)CCCC(C)Nc1ccnc2cc(Cl)ccc12` (stereo not drawn) [CHLOROQUINE], `O=C(CCCN1CCC(O)(c2ccc(Cl)cc2)CC1)c1ccc(F)cc1` [HALOPERIDOL] is higher in EC50: 4 µM for the first, over 10 µM for the second.

`NC(=O)N1c2ccccc2C=Cc2ccccc21` [CARBAMAZEPINE] and `c1ccc2nc3ccccc3nc2c1` [PHENAZINE] cannot be ordered by EC50: over 10 µM for the first, over 10 µM for the second.
